From patent US20250380697A1, “ISOXAZOLINE DERIVATIVE COMPOUND AND INSECTICIDAL COMPOSITION COMPRISING SAME” (KYUNG NONG CORPORATION, priority 2022, published 2025)

Key:
Assay type in all cases: in vivo
Spodoptera litura = assay: Pesticidal activity against Spodoptera litura, leaf-dipping method; details: 48 h, read-out: mortality rate against Spodoptera litura
Description: Cabbage (Daiya) leaves were cut into pieces with a diameter of 5.8 cm, dipped in each of the pesticide compositions prepared in Examples (a 5% acetone solution in which each of the compounds of Synthesis Examples (concentration: 100 ppm) was diluted) for 30 seconds, and sufficiently shade-dried. Then, the shade-dried cabbage leaves were placed in a petri dish (8.8 cm in diameter) covered with a filter paper and repeatedly inoculated 3 times with the second instar larvae of Spodoptera litura, 10 larvae per inoculation. In this case, Spodoptera litura larvae used were those which were purchased from the Bio Utilization Institute (Andong, Korea). Then, the Spodoptera litura larvae were stored under the conditions of 16 hours of light and 8 hours of dark, 25±1° C., and relative humidity of 50-60%, and the number of live Spodoptera litura larvae was counted 48 hours after the inoculation. Thereafter, the larvae mortality rate was calculated in the same manner as in Test Example 1 above.

[1] = test system: Frankliniella occidentalis; assay: Pesticidal activity against Frankliniella occidentalis, spray method; details: 48 h, read-out: mortality rate against Frankliniella occidentalis
Source text: A water-soaked filter paper (9.0 cm in diameter) was placed in an insect breeding dish (Lab Guide®) with a diameter of 9.0 cm and a height of 4.0 cm, and then parafilm (width 4.0 cm×height 4.0 cm) was placed thereon. Before treating with a pesticide composition, 10 adult Frankliniella occidentalis were inoculated per petri dish using a No. 4 brush. In this case, Frankliniella occidentalis adults used were those purchased from the Bio Utilization Institute (Andong, Korea). Then, each of the pesticide compositions prepared in Examples (a diluted solution in which each of the compounds of Synthesis Examples (concentration: 100 ppm) was diluted; the solvent=distilled water+acetone 50,000 mg/L+Triton X-100 100 mg/L) was loaded into a 100 mL small sprayer, and sprayed 10-12 times at a distance of 30 cm and a height of 50 cm, and one cotyledons of soybean, which is a host plant, were added one at a time. Then, the Frankliniella occidentalis adults were stored under the conditions of 16 hours of light and 8 hours of darkness, 25±1° C., and relative humidity of 50-60%, and the number of live Frankliniella occidentalis adults was counted 48 hours after the inoculation. Thereafter, the larvae mortality rate was calculated in the same manner as in Test Example 1 above.

Plutella xylostella = assay: Pesticidal activity against Plutella xylostella, leaf-dipping method; details: 48 h, read-out: larvae mortality rate against Plutella xylostella
Description: Cabbage (Daiya) leaves were cut into pieces with a diameter of 5.8 cm, dipped in each of the pesticide compositions prepared in Examples (a 5% acetone solution in which each of the compounds of Synthesis Examples (concentration: 100 ppm) was diluted) for 30 seconds, and sufficiently shade-dried. Then, the shade-dried cabbage leaves were placed in a petri dish (8.8 cm in diameter) covered with a filter paper and repeatedly inoculated 3 times with third instar larvae of Plutella xylostella, 10 larvae per inoculation. In particular, Plutella xylostella larvae used were those which were collected in a place near Gyeongju (Korea) in 2000 and bred in a breeding room for multiple generations. Then, the Plutella xylostella larvae were stored under the conditions of 16 hours of light and 8 hours of dark, 25±1° C., and relative humidity of 50-60%, and the number of live Plutella xylostella larvae was counted 48 hours after the inoculation. Thereafter, the larvae mortality rate was calculated by correcting the density after treatment based on the density before treatment, as shown in Equation 1 and Equation 2 below, and converting the same into the corrected mortality rate for untreated (Reference: A method of computing the effectiveness of an insecticide. J. Econ. Entomol. 18:265˜267. Abbott, 1925).

Measured: mortality at 100 ppm

Cc1cc(C2=NOC(c3cc(Cl)cc(Cl)c3)(C(F)(F)F)C2)ccc1C(=O)NC(=O)c1cn(C)nc1C(F)(F)F (stereo not drawn) [Synthesis Example 47]
≥ 80%: all assays above

Cc1cc(C2=NOC(c3cc(Cl)cc(Cl)c3)(C(F)(F)F)C2)ccc1C(=O)NC(=O)C1(F)CC1 (stereo not drawn) [Synthesis Example 49]
≥ 80%: all assays above

Cc1cc(C2=NOC(c3cc(Cl)cc(Cl)c3)(C(F)(F)F)C2)ccc1C(=O)NC(=O)C1CC1(F)F (stereo not drawn) [Synthesis Example 50]
≥ 80%: all assays above

Cc1cc(C2=NOC(c3cc(Cl)cc(Cl)c3)(C(F)(F)F)C2)ccc1C(=O)NC(=O)C1CC12CCC2 (stereo not drawn) [Synthesis Example 52]
≥ 80%: all assays above

Cc1cc(C2=NOC(c3cc(Cl)cc(Cl)c3)(C(F)(F)F)C2)ccc1C(=O)NC(=O)C1CC1C1CC1 (stereo not drawn) [Synthesis Example 53]
≥ 80%: all assays above

Cc1cc(C2=NOC(c3cc(Cl)cc(Cl)c3)(C(F)(F)F)C2)ccc1C(=O)NC(=O)CC1CC1 (stereo not drawn) [Synthesis Example 55]
≥ 80%: all assays above

Cc1cc(C(=O)NC(=O)c2ccc(C3=NOC(c4cc(Cl)cc(Cl)c4)(C(F)(F)F)C3)cc2C)c(C)o1 (stereo not drawn) [Synthesis Example 56]
≥ 80%: all assays above

Cc1cc(C(=O)NC(=O)c2ccc(C3=NOC(c4cc(Cl)cc(C(F)(F)F)c4)(C(F)(F)F)C3)cc2C)c(C)o1 (stereo not drawn) [Synthesis Example 57]
≥ 80%: all assays above

Cc1cc(C2=NOC(c3cc(Cl)cc(Cl)c3)(C(F)(F)F)C2)ccc1C(=O)NC(=O)c1ccco1 (stereo not drawn) [Synthesis Example 58]
≥ 80%: all assays above

Cc1cc(C2=NOC(c3cc(Cl)cc(C(F)(F)F)c3)(C(F)(F)F)C2)ccc1C(=O)NC(=O)c1ccco1 (stereo not drawn) [Synthesis Example 59]
≥ 80%: all assays above

Cc1cc(C2=NOC(c3cc(Cl)cc(C(F)(F)F)c3)(C(F)(F)F)C2)ccc1C(=O)NC(=O)C1CCOCC1 (stereo not drawn) [Synthesis Example 65]
≥ 80%: all assays above

Cc1cc(C2=NOC(c3cc(Cl)cc(Cl)c3)(C(F)(F)F)C2)ccc1C(=O)NC(=O)N1CCCCC1 (stereo not drawn) [Synthesis Example 66]
≥ 80%: all assays above

Cc1cc(C2=NOC(c3cc(Cl)cc(C(F)(F)F)c3)(C(F)(F)F)C2)ccc1C(=O)NC(=O)N1CCCCC1 (stereo not drawn) [Synthesis Example 67]
≥ 80%: all assays above

Cc1cc(C2=NOC(c3cc(Cl)cc(Cl)c3)(C(F)(F)F)C2)ccc1C(=O)NC(=O)C1CCCC1 (stereo not drawn) [Synthesis Example 68]
≥ 80%: all assays above

Cc1cc(C2=NOC(c3cc(Cl)cc(C(F)(F)F)c3)(C(F)(F)F)C2)ccc1C(=O)NC(=O)C1CCCC1 (stereo not drawn) [Synthesis Example 69]
≥ 80%: all assays above

CC(C)=CC(=O)NC(=O)c1ccc(C2=NOC(c3cc(Cl)cc(C(F)(F)F)c3)(C(F)(F)F)C2)cc1C (stereo not drawn) [Synthesis Example 70]
≥ 80%: all assays above

C/C=C/C(=O)NC(=O)c1ccc(C2=NOC(c3cc(Cl)cc(C(F)(F)F)c3)(C(F)(F)F)C2)cc1C (stereo not drawn) [Synthesis Example 71]
≥ 80%: all assays above

C/C=C/C=C/C(=O)NC(=O)c1ccc(C2=NOC(c3cc(Cl)cc(C(F)(F)F)c3)(C(F)(F)F)C2)cc1C (stereo not drawn) [Synthesis Example 72]
≥ 80%: all assays above

Cc1cc(C2=NOC(c3cc(Cl)cc(C(F)(F)F)c3)(C(F)(F)F)C2)ccc1C(=O)NC(=O)CC1CC1 (stereo not drawn) [Synthesis Example 75]
≥ 80%: all assays above

Cc1cc(C2=NOC(c3cc(Cl)cc(C(F)(F)F)c3)(C(F)(F)F)C2)ccc1C(=O)NC(=O)c1ccc(C#N)cc1 (stereo not drawn) [Synthesis Example 76]
≥ 80%: all assays above

Cc1cc(C2=NOC(c3cc(Cl)cc(C(F)(F)F)c3)(C(F)(F)F)C2)ccc1C(=O)NC(=O)c1nccs1 (stereo not drawn) [Synthesis Example 78]
≥ 80%: all assays above

Cc1cc(C2=NOC(c3cc(Cl)cc(Cl)c3)(C(F)(F)F)C2)ccc1C(=O)NC(=O)c1nccs1 (stereo not drawn) [Synthesis Example 79]
≥ 80%: all assays above

Cc1cc(C(=O)NC(=O)c2ccc(C3=NOC(c4cc(Cl)cc(Cl)c4)(C(F)(F)F)C3)cc2C)no1 (stereo not drawn) [Synthesis Example 80]
≥ 80%: all assays above

Cc1cc(C2=NOC(c3cc(Cl)cc(Cl)c3)(C(F)(F)F)C2)ccc1C(=O)NC(=O)c1ccno1 (stereo not drawn) [Synthesis Example 81]
≥ 80%: all assays above

Cc1cc(C(=O)NC(=O)c2ccc(C3=NOC(c4cc(Cl)cc(C(F)(F)F)c4)(C(F)(F)F)C3)cc2C)no1 (stereo not drawn) [Synthesis Example 82]
≥ 80%: all assays above

Cc1cc(C2=NOC(c3cc(Cl)cc(C(F)(F)F)c3)(C(F)(F)F)C2)ccc1C(=O)NC(=O)c1ccno1 (stereo not drawn) [Synthesis Example 83]
≥ 80%: all assays above

Cc1cc(C2=NOC(c3cc(Cl)cc(C(F)(F)F)c3)(C(F)(F)F)C2)ccc1C(=O)NC(=O)c1cc(C2CC2)on1 (stereo not drawn) [Synthesis Example 84]
≥ 80%: all assays above

Cc1cc(C2=NOC(c3cc(Cl)cc(C(F)(F)F)c3)(C(F)(F)F)C2)ccc1C(=O)NC(=O)C1CCCO1 (stereo not drawn) [Synthesis Example 85]
≥ 80%: all assays above
